{"source": "patent US8569349B2", "about": "“Therapeutic compounds” (Allergan, Inc., priority 2008, dated 2013)", "tested_on": "lashes and adjacent hairs of the eyelids", "assay": "Observation of lashes and adjacent hairs in glaucoma patients taking bimatoprost in only one eye", "assay_type": "in vivo", "excerpt": "In the course of treating patients having glaucoma, treatment may only be appropriate in one eye. […] The lash appearance on the lids of the treated eyes would have appeared quite attractive if it represented a bilateral phenomenon. As a result of its asymmetric nature, the long lashes on one side could be construed as disturbing from a cosmetic standpoint. A systemic examination was preformed as a result of the asymmetric phenomenon. It soon became apparent that this altered appearance was not an isolated finding. […] Definite differences could be identified to varying degrees in the lashes and adjacent hairs of all patients who were taking the drug on a unilateral basis for longer than 6 months.\nThe changes in the lashes were apparent on gross inspection in several patients once attention was focused on the issue. In those with light colored hair and lashes, the differences were only seen easily with the aid of the high magnification and lighting capabilities of the slit lamp biomicroscope. In the course of glaucoma follow-up examination, attention is generally immediately focused on the eye itself. As a result of the high power magnification needed only one eye is seen at a time and the eye is seen at a high enough power that the lashes are not in focus. […]", "data": [{"smiles": "CCNC(=O)CCC/C=C\\C[C@@H]1[C@@H](/C=C/[C@@H](O)CCc2ccccc2)[C@H](O)C[C@@H]1O", "note": "[bimatoprost]", "values": [{"measurement": "lashes in the treated eye compared with the non-treated eye", "setting": "glaucoma patient treated in one eye", "value": "longer, thicker, and fuller"}, {"measurement": "hair growth in treated versus control areas", "setting": "multiple parameters of hair appearance, many subjects", "value": "stimulated"}]}]}
